Like-named read-outs stand apart in the source and are kept apart here.
Experiments:
KRAS G12C::SOS1 = biological target: T1, KRAS G12C::SOS1 (Homo sapiens, UniProt Q07889); assay: KRAS G12C::SOS1 protein-protein interaction (PPI) inhibition assay (HTRF); format: binding
T1 construct: purchased CISBIO 64KRASG12PEH
T1 sequence (Q07889 1-1333): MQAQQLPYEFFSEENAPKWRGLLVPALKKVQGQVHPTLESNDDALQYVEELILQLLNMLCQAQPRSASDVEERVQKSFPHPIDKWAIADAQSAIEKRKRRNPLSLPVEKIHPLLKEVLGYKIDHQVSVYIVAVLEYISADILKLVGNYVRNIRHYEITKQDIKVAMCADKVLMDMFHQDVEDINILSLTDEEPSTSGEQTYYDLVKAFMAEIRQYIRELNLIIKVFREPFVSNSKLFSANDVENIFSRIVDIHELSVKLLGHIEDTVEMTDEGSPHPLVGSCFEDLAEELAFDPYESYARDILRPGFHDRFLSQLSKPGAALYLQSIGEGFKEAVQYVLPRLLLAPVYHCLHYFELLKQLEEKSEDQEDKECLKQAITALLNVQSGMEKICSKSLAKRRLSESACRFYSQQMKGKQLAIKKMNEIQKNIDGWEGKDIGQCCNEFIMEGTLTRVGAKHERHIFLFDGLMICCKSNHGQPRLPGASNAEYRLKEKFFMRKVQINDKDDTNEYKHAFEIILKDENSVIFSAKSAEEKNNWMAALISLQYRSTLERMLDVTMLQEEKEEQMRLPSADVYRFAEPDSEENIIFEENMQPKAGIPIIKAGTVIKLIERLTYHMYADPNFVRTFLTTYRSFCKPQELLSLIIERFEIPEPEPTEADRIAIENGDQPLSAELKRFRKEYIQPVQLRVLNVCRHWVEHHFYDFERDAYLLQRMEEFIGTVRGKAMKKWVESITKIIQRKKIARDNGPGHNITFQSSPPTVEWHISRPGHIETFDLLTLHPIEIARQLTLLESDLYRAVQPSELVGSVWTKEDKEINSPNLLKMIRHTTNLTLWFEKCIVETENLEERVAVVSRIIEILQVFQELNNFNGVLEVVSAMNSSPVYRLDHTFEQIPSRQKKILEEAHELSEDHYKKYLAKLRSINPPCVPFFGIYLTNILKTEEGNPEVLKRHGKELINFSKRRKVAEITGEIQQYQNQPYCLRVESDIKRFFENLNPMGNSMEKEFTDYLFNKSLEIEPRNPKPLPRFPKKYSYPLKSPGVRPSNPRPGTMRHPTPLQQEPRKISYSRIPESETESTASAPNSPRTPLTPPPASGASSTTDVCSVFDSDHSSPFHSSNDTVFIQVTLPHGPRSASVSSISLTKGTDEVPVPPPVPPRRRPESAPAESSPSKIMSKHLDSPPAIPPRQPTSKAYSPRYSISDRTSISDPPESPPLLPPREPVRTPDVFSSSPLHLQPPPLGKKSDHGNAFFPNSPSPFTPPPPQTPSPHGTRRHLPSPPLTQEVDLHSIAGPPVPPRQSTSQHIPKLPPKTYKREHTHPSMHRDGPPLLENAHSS
Method: Protein-protein interaction between SOS1 and KRAS^G12c was detected using KRAS G12C/SOS1 binding kit from CISBIO (64KRASG12PEH, CISBIO, FRANCE) according to the manufacturer's assay method. Briefly, the maximum concentration of an inhibitor sample was set to be 3 µM, and the inhibitor sample was diluted 7 times by 1/3, and samples having a total of 8 concentrations were prepared. In HTRF (Homogeneous Time-Resolved Fluorescence) exclusive 96-well low-volume white plate (66PL96005, CISBIO, FRANCE), 2 µL of an inhibitor sample prepared for each concentration, 5 µL of a mixed solution of Tag1 labeled KRAS^G12c protein and GTP diluted with the dilution solution provided by the manufacturer, and 5 µL of Tag2 labeled SOS1 protein were mixed, and added with 8 µL of a diluted solution where anti-Tag1 KRAS^G12C XL665 (HTRF acceptor) labeled antibody and anti-Tag2 SOS1 Terbium cryptate (HTRF donor) labeled antibody were mixed in an equal ratio and cultured at room temperature for 2 h.

SOS1 = biological target: T2, SOS1 (Homo sapiens, UniProt Q07889); assay: SOS-catalyzed nucleotide exchange assay (HTRF, SOS1-mediated GTP loading of KRAS G12D); format: biochemical
T2 construct: HIS-SOS1cat (160 nM; Cytoskeleton, US); His (N); purchased Cytoskeleton
T2 sequence (Q07889 564-1049 limits assumed): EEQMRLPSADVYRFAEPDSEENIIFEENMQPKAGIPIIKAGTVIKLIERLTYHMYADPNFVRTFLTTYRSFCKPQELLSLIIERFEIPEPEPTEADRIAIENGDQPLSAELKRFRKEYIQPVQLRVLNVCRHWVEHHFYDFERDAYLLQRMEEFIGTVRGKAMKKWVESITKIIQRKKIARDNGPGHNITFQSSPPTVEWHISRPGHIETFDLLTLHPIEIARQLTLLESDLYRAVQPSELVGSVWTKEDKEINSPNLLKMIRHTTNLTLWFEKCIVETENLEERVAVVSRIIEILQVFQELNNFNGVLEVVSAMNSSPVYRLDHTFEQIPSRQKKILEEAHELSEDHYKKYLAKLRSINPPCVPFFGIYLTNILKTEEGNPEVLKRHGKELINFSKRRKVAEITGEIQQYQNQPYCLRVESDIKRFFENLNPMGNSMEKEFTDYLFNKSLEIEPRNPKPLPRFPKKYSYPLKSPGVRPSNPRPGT
Method: SOS1 activity was measured by SOS1-mediated GTP loading quantification of KRAS^G12D. GTP loaded KRAS^G12D was detected by HTRF (Homogeneous Time Resolved Fluorescence) using anti-GST terbium (Cisbio, France) as a donor and a fluorescence GTP analogue (EDA-GTP-DY-647P1, [DY-647P1 labeled 2'/3'-O-(2-aminoethyl-carbamoyl)guanosine-5'-triphosphate (Jena bioscience, Germany)]) as an acceptor.
KRAS^G12D working solution was prepared by adding equal amounts of GST-KRAS^G12D (100 nM) and anti-GST-terbium (2 nM; Cisbio, France) to the assay buffer and culturing on ice for 10 minutes. […] Control solution was prepared by adding equal volumes of EDA-GTP-DY-647P1 and the assay buffer for normalization control to exclude GEF-independent GTP loading and background signals.
10 uL of the KRAS^G12D solution was added to each well and incubated for 30 minutes at room temperature while shaking. HTRF was measured using a Thermo Varioskan (excitation 334 nm, emission 665 nm). The IC50 of each inhibitor was analyzed using Graphad Prism.

[1] = 8 concentrations from 3 µM, three replicates, read-out: KRAS G12C::SOS1 PPI
[2] = GST-KRAS G12D, HIS-SOS1cat, compound 128 pM to 10 µM, read-out: SOS-catalyzed nucleotide exchange assay

Structure (SMILES): C[C@@H](NC(=O)c1ccc(=O)n(-c2cnnc(-c3cnnn3C)c2)n1)c1cccc(C(F)F)c1F [Example 5, N-[(1R)-1-[2-fluoro-3-(difluoromethyl)phenyl]ethyl]-1-[6-(3-methyltriazol-4-yl)pyridazin-4-yl]-6-oxo-pyridazine-3-carboxamide]
- IC50 (KRAS G12C::SOS1): > 0.15 µM
- IC50 (SOS1): > 0.15 µM

Structure (SMILES): C[C@@H](NC(=O)c1ccc(=O)n(-c2cncc(-c3cnnn3C3CN(CCO)C3)c2)n1)c1cccc(C(F)(F)F)c1F [Example 20-1, (R)-N-(1-(2-fluoro-3-(trifluoromethyl)phenyl)ethyl)-1-(5-(1-(1-(2-hydroxyethyl)azetidin-3-yl)-1H-1,2,3-triazol-5-yl)pyridin-3-yl)-6-oxo-1,6-dihydropyridazine-3-carboxamide]
- IC50 (KRAS G12C::SOS1; [1]): 0.05 to 0.15 µM
- IC50 (SOS1; [2]): < 0.05 µM

Structure (SMILES): C[C@@H](NC(=O)c1ccc(=O)n(-c2cncc(-c3cnnn3C3CN(C)C3)c2)n1)c1cccc(C(F)(F)F)c1F [Example 20, N-{(R)-1-[2-fluoro-3-(trifluoromethyl)phenyl]ethyl}-1-{5-[1-(1-methyl-3-azetidinyl)-1H-1,2,3-triazol-5-yl]-3-pyridyl}-6-oxo-1,6-dihydropyridazine-3-carboxamide]
- IC50 (KRAS G12C::SOS1; [1]): < 0.05 µM
- IC50 (SOS1; [2]): < 0.05 µM

Structure (SMILES): CCn1nncc1-c1cc(-n2nc(C(=O)N[C@H](C)c3cccc(C(F)(F)F)c3F)ccc2=O)cnc1C [Example 1-27, 1-[5-(3-ethyltriazol-4-yl)-6-methyl-3-pyridyl]-N-[(1R)-1-[2-fluoro-3-(trifluoromethyl)phenyl]ethyl]-6-oxo-pyridazine-3-carboxamide]
- IC50 (KRAS G12C::SOS1; [1]): 0.05 to 0.15 µM
- IC50 (SOS1; [2]): 0.05 to 0.15 µM

Structure (SMILES): C[C@@H](NC(=O)c1ccc(=O)n(-c2cncc(-c3cnnn3C3CC3)c2)c1)c1cccc(C(F)(F)F)c1F [Example 1-68, 1-[5-(1-cyclopropyl-1H-1,2,3-triazol-5-yl)-3-pyridyl]-N-[(1R)-1-[2-fluoro-3-(trifluoromethyl)phenyl]ethyl]-2-oxo-2H-[1,3'-bipyridine]-5-carboxamide]
- IC50 (KRAS G12C::SOS1; [1]): < 0.05 µM
- IC50 (SOS1; [2]): < 0.05 µM

Structure (SMILES): C[C@@H](NC(=O)c1ccc(=O)n(-c2cncc(-c3cnnn3[C@H]3CCNC3)c2)n1)c1cccc(C(F)(F)F)c1F [Example 20-5, N-[(1R)-1-[2-fluoro-3-(trifluoromethyl)phenyl]ethyl]-6-oxo-1-[5-[3-[(3S)-pyrrolidin-3-yl]triazol-4-yl]-3-pyridyl]pyridazine-3-carboxamide]
- IC50 (KRAS G12C::SOS1): 0.05 to 0.15 µM
- IC50 (SOS1): 0.05 to 0.15 µM

Structure (SMILES): C[C@@H](NC(=O)c1cc(C#N)c(=O)n(-c2cc(-c3cnnn3C)cnc2F)n1)c1cccc(C(F)(F)CO)c1F [Example 3-3]
- IC50 (KRAS G12C::SOS1; [1]): < 0.05 µM
- IC50 (SOS1; [2]): < 0.05 µM

Structure (SMILES): C[C@@H](NC(=O)c1ccc(=O)n(-c2cncc(-c3cnnn3C3CCNCC3)c2)n1)c1cccc(C(F)(F)F)c1F [Example 20-4, N-[(1R)-1-[2-fluoro-3-(trifluoromethyl)phenyl]ethyl]-6-oxo-1-[5-[3-(4-piperidyl)triazol-4-yl]-3-pyridyl]pyridazine-3-carboxamide]
- IC50 (KRAS G12C::SOS1): 0.05 to 0.15 µM
- IC50 (SOS1): < 0.05 µM

Structure (SMILES): C[C@@H](NC(=O)c1ccc(=O)n(-c2cncc(-c3cnnn3[C@H]3CC3(F)F)c2)n1)c1cccc(C(F)(F)CO)c1F (single isomer, unassigned) [Example 25]
- IC50 (KRAS G12C::SOS1): < 0.05 µM
- IC50 (SOS1): < 0.05 µM

Structure (SMILES): COCC(F)(F)c1cccc([C@@H](C)NC(=O)c2ccc(=O)n(-c3cncc(-c4cnnn4C)c3)n2)c1F [Example 1-10, (R)-N-(1-(3-(1,1-difluoro-2-methoxyethyl)-2-fluorophenyl)ethyl)-1-(5-(1-methyl-1H-1,2,3-triazol-5-yl)pyridin-3-yl)-6-oxo-1,6-dihydropyridazine-3-carboxamide]
- IC50 (KRAS G12C::SOS1; [1]): 0.05 to 0.15 µM
- IC50 (SOS1; [2]): < 0.05 µM

Structure (SMILES): CC(C)n1nncc1-c1cncc(-n2nc(C(=O)N[C@H](C)c3cccc(C(F)(F)F)c3F)ccc2=O)c1 [Example 1-49, N-[(1R)-1-[2-fluoro-3-(trifluoromethyl)phenyl]ethyl]-1-[5-(3-isopropyltriazol-4-yl)-3-pyridyl]-6-oxo-pyridazine-3-carboxamide]
- IC50 (KRAS G12C::SOS1; read-out: KRAS G12C::SOS1 PPI, 8 concentrations from 3 µM, three replicates): < 0.05 µM
- IC50 (SOS1; read-out: SOS-catalyzed nucleotide exchange assay, GST-KRAS G12D, HIS-SOS1cat, compound 128 pM to 10 µM): 0.05 to 0.15 µM

Structure (SMILES): C[C@@H](NC(=O)c1cc(C#N)c(=O)n(-c2cc(-c3cnnn3C3CC3)cnc2F)n1)c1cccc(C(F)(F)F)c1F [Example 3-4, 5-cyano-N-[(1R)-1-[2-fluoro-3-(trifluoromethyl)phenyl]ethyl]-1-(5-(1-cyclopropyl-1H-1,2,3-triazol-5-yl)-2-fluoropyridin-3-yl)-6-oxo-1,6-dihydropyridazine-3-carboxamide]
- IC50 (KRAS G12C::SOS1; [1]): 0.05 to 0.15 µM
- IC50 (SOS1; [2]): 0.05 to 0.15 µM

Structure (SMILES): [2H]C([2H])(O)C(F)(F)c1cccc([C@@H](C)NC(=O)c2ccc(=O)n(-c3cncc(-c4cnnn4C4CNC4)c3)n2)c1F [Example 20-3, (R)-1-(5-(1-(azetidin-3-yl)-1H-1,2,3-triazol-5-yl)pyridin-3-yl)-N-(1-(3-(1,1-difluoro-2-hydroxyethyl-2,2-dideuterio)-2-fluorophenyl)ethyl)-6-oxo-1,6-dihydropyridazine-3-carboxamide]
- IC50 (KRAS G12C::SOS1): < 0.05 µM
- IC50 (SOS1): < 0.05 µM

Structure (SMILES): Cc1c([C@@H](C)NC(=O)c2ccc(=O)n(-c3cncc(-c4cnnn4C)c3)n2)cc(N)cc1C(F)(F)F [Example 2-2, N-[(1R)-1-[5-amino-2-methyl-3-(trifluoromethyl)phenyl]ethyl]-1-[5-(3-methyltriazol-4-yl)-3-pyridyl]-6-oxo-pyridazine-3-carboxamide]
- IC50 (KRAS G12C::SOS1; [1]): < 0.05 µM
- IC50 (SOS1; [2]): < 0.05 µM
